Measured values taken from US20030187076A1, “Non-steroidal analogs of 2-methoxyestradiol” (priority 2002, published 2003).

Assays:
[1] = system: chick embryo chorioallantoic membrane; assay: chick embryo chorioallantoic membrane (CAM) assay; type: in vivo; settings: 100 μg methylcellulose disk, after 48 hours
Text: Anti-proliferative activity can be evaluated in situ by testing the ability of the new non-steroidal estradiol derivatives to inhibit the proliferation of new blood vessel cells (angiogenesis). A suitable assay is the chick embryo chorioallantoic membrane (CAM) assay described by Crum et al. Science 230:1375 (1985). See also, U.S. Pat. No. 5,001,116, hereby incorporated by reference, which describes the CAM assay. Briefly, fertilized chick embryos are removed from their shell on day 3 or 4, and a methylcellulose disc containing the drug is implanted on the chorioallantoic membrane. The embryos are examined 48 hours later and, if a clear avascular zone appears around the methylcellulose disc, the diameter of that zone is measured.

MCF-7 cell = assay: estrogen dependent MCF-7 cell proliferation; type: cell-based; settings: over a wide range of concentrations
Text: 2-Methoxyestradiol is an endogenous, steroidal metabolite of estradiol (E2) that has potent anti-proliferative activity and induces apoptosis in a wide variety of tumor and non-tumor cell lines. […] What is needed is a series of compounds that constitute analogs of 2-methoxyestradiol which are non-steroidal in structure and which will have similar biological properties to 2-methoxyestradiol and that can be used in similar applications.

[2] = system: vascular endothelial cell; settings: endothelial versus tumor cell proliferation; cited from earlier work

Q: Which results are given for `COc1cc2c(cc1O)CC[C@@H]1[C@@H]2CC[C@]2(C)[C@@H](O)CC[C@@H]12` [2-methoxyestradiol]?
A: inhibition of cell mitosis and growth of new blood vessels [1]: inhibit cell mitosis and the growth of new blood vessels; estrogenic activity (MCF-7 cell): not estrogenic

Q: For `CO[C@@H]1[C@H](OC(=O)NC(=O)CCl)CC[C@]2(CO2)[C@H]1[C@@]1(C)O[C@@H]1CC=C(C)C` [AGM-1470], which “half-maximal inhibition of endothelial cell proliferation, concentration lower than for tumor cell proliferation” value [2] is on record?
A: Its value is 4 logs.
